From patent US6620810B2, “4-thioxo-4,7-dihydro-thieno[2,3-b]pyridine-5-carboxamides as antiviral agents” (Pharmacia & Upjohn Company, priority 2001, dated 2003)

Assays:
Format in all cases: biochemical
HCMV polymerase = target: T1, HCMV polymerase (Human cytomegalovirus, UniProt P08546); assay: HCMV polymerase scintillation proximity assay (Test A, modified version); settings: modified SPA assay: compounds diluted in 100% DMSO, 4.5 mM DTT in polymerase buffer
T1 construct: made in house; host or cells: recombinant baculovirus-infected SF-9 cells
T1 sequence (P08546 whole entry): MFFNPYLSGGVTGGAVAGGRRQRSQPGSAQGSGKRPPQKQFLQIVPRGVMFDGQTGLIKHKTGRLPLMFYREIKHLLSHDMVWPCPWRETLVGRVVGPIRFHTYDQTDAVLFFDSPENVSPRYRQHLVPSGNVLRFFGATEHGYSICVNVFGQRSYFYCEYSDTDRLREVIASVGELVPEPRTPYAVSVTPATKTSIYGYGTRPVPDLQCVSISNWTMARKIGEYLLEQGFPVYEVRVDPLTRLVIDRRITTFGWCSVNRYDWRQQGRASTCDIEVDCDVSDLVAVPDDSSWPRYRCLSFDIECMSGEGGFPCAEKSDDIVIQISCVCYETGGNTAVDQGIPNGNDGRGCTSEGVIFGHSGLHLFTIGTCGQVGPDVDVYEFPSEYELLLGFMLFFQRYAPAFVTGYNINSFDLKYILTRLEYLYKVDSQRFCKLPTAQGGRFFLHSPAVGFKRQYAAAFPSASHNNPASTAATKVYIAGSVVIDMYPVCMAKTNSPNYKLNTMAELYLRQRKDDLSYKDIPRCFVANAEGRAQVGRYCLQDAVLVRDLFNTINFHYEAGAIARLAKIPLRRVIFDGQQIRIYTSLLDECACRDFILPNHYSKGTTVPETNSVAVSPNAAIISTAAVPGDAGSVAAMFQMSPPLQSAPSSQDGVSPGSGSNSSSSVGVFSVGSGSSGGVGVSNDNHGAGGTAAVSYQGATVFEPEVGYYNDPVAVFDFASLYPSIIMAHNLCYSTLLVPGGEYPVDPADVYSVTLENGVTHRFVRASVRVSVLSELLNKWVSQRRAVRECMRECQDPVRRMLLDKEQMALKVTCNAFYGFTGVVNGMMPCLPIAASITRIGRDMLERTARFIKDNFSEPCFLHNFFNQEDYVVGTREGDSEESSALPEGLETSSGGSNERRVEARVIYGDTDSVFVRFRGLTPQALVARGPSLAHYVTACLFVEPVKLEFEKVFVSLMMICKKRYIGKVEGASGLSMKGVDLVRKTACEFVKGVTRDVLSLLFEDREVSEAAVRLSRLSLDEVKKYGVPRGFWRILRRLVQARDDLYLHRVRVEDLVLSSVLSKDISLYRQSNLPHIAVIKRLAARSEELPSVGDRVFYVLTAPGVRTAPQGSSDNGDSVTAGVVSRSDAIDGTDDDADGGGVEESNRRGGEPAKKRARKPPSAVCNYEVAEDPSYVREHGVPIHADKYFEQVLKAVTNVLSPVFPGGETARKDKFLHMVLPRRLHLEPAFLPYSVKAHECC
Method: The HCMV polymerase assay is performed using a scintillation proximity assay (SPA) as described in several references, such as N. D. Cook, et al., Pharmaceutical Manufacturing International, pages 49-53 (1992); K. Takeuchi, Laboratory Practice, September issue (1992); U.S. Pat. No. 4,568,649 (1986); which are incorporated by reference herein. Reactions are performed in 96-well plates. The assay is conducted in 100 μl volume with 5.4 mM HEPES (pH 7.5), 11.7 mM KCl, 4.5 mM MgCl2, 0.36 mg/ml BSA, and 90 nM ^3H-dTTP. Assays are run with and without CHAPS, (3-[(3-cholamidopropyl)-dimethylammonio]-1-propane-sulfonate) at a final concentration of 2 mM. HCMV polymerase is diluted in enzyme dilution buffer containing 50% glycerol, 250 mM NaCl, 10 mM HEPES (pH 7.5), 100 μg/ml BSA, and 0.01% sodium azide. […] Plates are incubated 10 min. at 37° C., then equilibrated to room temperature, and counted on a Packard Topcount. Linear regressions are performed and IC50's are calculated using computer software.
A modified version of the above HCMV polymerase assay is performed as described above, but with the following changes: Compounds are diluted in 100% DMSO until final dilution into assay buffer. […] In Table 1, the term “nd” refers to activity data not determined.

HSV polymerase = HSV polymerase (Human herpesvirus 1, UniProt P04293); assay: HSV polymerase assay (Table 1)
Chain of HSV polymerase (P04293 whole entry): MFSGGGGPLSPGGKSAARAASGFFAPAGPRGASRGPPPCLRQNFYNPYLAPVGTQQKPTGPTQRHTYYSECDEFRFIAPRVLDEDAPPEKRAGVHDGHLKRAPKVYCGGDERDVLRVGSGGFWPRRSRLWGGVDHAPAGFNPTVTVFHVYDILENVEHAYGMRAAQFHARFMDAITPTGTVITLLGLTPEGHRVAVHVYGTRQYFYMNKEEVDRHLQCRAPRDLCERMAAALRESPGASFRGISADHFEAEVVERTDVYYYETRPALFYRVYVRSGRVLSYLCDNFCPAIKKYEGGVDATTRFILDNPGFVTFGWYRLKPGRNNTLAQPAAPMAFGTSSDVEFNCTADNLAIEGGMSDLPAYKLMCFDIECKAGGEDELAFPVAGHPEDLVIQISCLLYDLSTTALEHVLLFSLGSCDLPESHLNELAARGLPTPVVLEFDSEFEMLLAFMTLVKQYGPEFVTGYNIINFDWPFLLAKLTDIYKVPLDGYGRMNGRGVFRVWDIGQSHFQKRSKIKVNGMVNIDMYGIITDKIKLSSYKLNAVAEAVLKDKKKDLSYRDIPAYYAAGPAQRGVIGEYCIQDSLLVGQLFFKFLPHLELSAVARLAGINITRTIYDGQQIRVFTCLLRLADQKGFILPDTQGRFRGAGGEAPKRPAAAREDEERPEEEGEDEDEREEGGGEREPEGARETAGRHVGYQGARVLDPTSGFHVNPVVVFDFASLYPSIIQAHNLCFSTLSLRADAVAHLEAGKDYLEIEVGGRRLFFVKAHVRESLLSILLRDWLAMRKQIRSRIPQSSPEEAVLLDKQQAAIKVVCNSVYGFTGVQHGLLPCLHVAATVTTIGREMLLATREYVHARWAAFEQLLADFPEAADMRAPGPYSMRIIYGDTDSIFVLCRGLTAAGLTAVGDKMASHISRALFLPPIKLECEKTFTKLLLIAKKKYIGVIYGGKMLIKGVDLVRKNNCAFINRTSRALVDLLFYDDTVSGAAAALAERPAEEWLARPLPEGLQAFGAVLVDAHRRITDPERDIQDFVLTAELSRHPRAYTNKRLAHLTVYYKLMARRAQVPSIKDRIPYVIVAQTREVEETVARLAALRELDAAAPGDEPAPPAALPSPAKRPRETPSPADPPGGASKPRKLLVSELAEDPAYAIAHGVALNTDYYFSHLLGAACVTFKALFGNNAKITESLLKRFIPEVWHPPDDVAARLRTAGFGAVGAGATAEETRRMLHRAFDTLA

VZV polymerase = VZV polymerase (Varicella-zoster virus, UniProt P09252); assay: VZV polymerase assay (Table 1)
Chain of VZV polymerase (P09252 whole entry): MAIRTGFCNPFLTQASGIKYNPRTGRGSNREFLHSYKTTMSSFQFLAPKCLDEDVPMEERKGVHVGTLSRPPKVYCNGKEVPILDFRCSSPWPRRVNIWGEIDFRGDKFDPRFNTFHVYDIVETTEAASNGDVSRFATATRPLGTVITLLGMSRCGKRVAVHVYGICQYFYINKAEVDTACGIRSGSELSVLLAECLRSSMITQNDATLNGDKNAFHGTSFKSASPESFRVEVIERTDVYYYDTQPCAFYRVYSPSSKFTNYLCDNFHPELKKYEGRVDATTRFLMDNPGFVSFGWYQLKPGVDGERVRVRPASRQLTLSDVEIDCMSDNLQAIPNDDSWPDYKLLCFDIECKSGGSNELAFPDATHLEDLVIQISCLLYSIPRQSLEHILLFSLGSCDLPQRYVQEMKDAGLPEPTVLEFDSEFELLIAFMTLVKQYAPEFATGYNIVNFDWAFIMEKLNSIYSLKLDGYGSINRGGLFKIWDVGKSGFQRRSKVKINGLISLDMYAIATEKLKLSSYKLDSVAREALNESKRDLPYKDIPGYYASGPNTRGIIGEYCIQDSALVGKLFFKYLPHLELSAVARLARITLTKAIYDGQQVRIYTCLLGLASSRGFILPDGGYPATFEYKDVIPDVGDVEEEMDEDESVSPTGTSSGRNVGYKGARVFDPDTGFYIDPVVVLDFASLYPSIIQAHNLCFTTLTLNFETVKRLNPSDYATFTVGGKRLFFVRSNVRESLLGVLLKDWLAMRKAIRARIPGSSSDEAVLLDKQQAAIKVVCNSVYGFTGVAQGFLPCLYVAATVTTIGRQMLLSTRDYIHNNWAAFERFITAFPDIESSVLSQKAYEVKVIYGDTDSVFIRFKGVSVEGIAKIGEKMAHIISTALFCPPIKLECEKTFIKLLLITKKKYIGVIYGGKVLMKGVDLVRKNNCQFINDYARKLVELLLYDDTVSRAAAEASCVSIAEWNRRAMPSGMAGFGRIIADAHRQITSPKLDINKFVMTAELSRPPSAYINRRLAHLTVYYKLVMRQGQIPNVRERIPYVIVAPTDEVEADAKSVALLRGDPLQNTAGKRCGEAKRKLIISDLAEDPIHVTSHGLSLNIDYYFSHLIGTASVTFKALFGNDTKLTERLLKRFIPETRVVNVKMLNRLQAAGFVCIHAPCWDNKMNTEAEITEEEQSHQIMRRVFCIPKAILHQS

With `Cn1cc(C(=O)NCc2ccc(Cl)cc2)c(=S)c2cc(CN3CCOCC3)sc21` [Example 1, N-(4-chlorobenzyl)-7-methyl-2-(4-morpholinylmethyl)-4-thioxo-4,7-dihydrothieno[2,3-b]pyridine-5-carboxamide] the IC50 (HCMV polymerase) was 630 nM, the IC50 (HSV polymerase) was 160 nM and the IC50 (VZV polymerase) was 80 nM.
